The record followed here is PubChem BioAssay (NCI).

Several values for one entry are separate records, joined by “and”; a condition that tells them apart may be missing. Equal values may be shown once.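 Grown in 96-well plates, cells were treated for 48 hours with each compound at five concentrations. Insufficient inhibition: endpoint recorded as highest concentration tested. GI50 is the concentration that inhibits growth by half. TGI denotes the concentration required for complete inhibition of growth.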 Some results are limits rather than exact numbers.

What all share (assay): NCI tumour cell line growth inhibition, 48 h
In experiment [1] the test system is 786-0 renal.
Experiment [2] relates to HCT-15 colon.
The test system of experiment [3] is LOX IMVI melanoma.
Experiment [4] deals with MDA-MB-231 breast.
Experiment [5] concerns MDA-MB-435.
In experiment [6] the test system is SF-295 CNS.
The test system of experiment [7] is SF-539 CNS.
For experiment [8], the system named is SK-MEL-28 melanoma.
Experiment [9] has as its system SW-620 colon.
Experiment [10] has as its system UACC-62 melanoma.

`Cn1cnc2nc(Cl)nc(Cl)c21`: the GI50 in experiment [1] is 1.01 µM; in [2], 2.58 µM; in experiment [3] it was 0.406 µM; in [4], 4.26 µM; in experiment [5] it was 0.445 µM; in [6], 3.57 µM. Moreover, the GI50 in experiment [7] is 0.924 µM; in [8], 4.35 µM; in experiment [9] it was 0.469 µM; in experiment [10], 1.79 µM. Further, the TGI was over 100 µM in experiment [1]; 20.7 µM in experiment [2]; 16.8 µM in experiment [3]; 33.2 µM in experiment [4]; 13.7 µM in [5]; over 100 µM in [6]. Also, the TGI was 5.53 µM in experiment [7], 16.5 µM in experiment [8], 15.5 µM in [9] and 19.7 µM in experiment [10].

`COc1ccc(C2CC(c3cccc(Nc4ccnc5cc(Cl)ccc45)c3)=NN2c2ccc(Cl)cc2)cc1` (centres undefined): the GI50 in experiment [1] was 2.94 µM; in [2], 2.3 µM; in experiment [3], 1.3 µM; in experiment [4], 4.84 µM; in experiment [5], 0.717 µM; in experiment [6], 5.8 µM. For the same compound, the GI50 in experiment [7] was 1.8 µM; in experiment [8] it was 7.07 µM; in experiment [9], 0.533 µM; in experiment [10], 0.601 µM. In addition, the TGI was 44 µM in experiment [1]; 18.7 µM in experiment [2]; 13.6 µM in experiment [3]; 65.2 µM in experiment [4]; 49.6 µM in experiment [5]; 23.3 µM in experiment [6]. The TGI worked out at 4.43 µM in experiment [7], 66.9 µM in [8], 21.6 µM in experiment [9] and 13.3 µM in experiment [10].

As for `CC(C)(O)C1CC(=O)C(C)(C2C(O)CC3(C)C4CC=C5C(CCC(O)C5(C)C)C4(C)C(=O)CC23C)O1` (centres undefined), the TGI in [1], in [2], in [3], in experiment [4], in [5] and in [6] was over 100 µM in each case. Besides, the TGI in experiment [7], in experiment [8], in [9] and in experiment [10] was over 100 µM each time.

For `Nc1cc2[nH]c(=O)c3cc(Cl)ccc3c2cc1Cl`, the TGI in experiment [1] was over 100 µM; in experiment [2] it was over 100 µM; in experiment [3], 53.6 µM; in experiment [4] it was 68.6 µM; in experiment [5], 52.1 µM; in [6], 44.2 µM. The TGI in experiment [7] was 25.8 µM; in [8], over 100 µM; in [9] it was over 100 µM; in experiment [10] it was over 100 µM.

As to `COc1c(C)cnc(Cn2cnc3c(Cl)nc(N)nc32)c1C`, the GI50 in experiment [1] was 0.937 µM; in experiment [2], 0.107 µM; in [3], 0.29 µM; in [4] it was 0.559 µM; in [5], 0.179 µM; in [6], 0.0948 µM. The GI50 in experiment [7] was 0.605 µM; in experiment [8], 0.546 µM; in [9], 0.113 µM; in [10], 0.301 µM. Further, the TGI in experiment [1] was over 100 µM; in [2], 26.7 µM; in experiment [3], 4.05 µM; in [4], over 72.9 µM; in experiment [5] it was 40.1 µM; in [7] it was over 100 µM. Also, the results for the TGI in [8], in experiment [9] and in experiment [10] were over 83.4 µM, over 100 µM and 6.95 µM, respectively.

Take `C/C=C\C(C)=C/C(C)C(=O)CC(O)CC1CC(=O)NC(=O)C1` (centres undefined): the TGI in experiment [1], in [2], in experiment [3], in experiment [4], in experiment [5] and in experiment [6] was over 100 µM each time. The TGI in [7] is over 100 µM; in experiment [8], over 100 µM; in experiment [9] it was over 100 µM; in experiment [10] it was over 64.1 µM.

Take `CCCCc1ccc(C(N)=O)nc1`: the GI50 in [1], in [2], in experiment [3], in [4], in [5] and in [6] was over 100 µM in each case. Moreover, the GI50 in experiment [7], in [8], in experiment [9] and in experiment [10] was over 100 µM throughout. The TGI in experiment [1], in experiment [2], in experiment [3], in experiment [4], in experiment [5] and in experiment [6] was over 100 µM each time. Besides, the TGI in experiment [7], in experiment [8], in experiment [9] and in experiment [10] was over 100 µM in each case.

As to `O=C(NC(c1ccccc1)C(O)C(=O)OCc1ccc2c(c1)C(=O)c1ccccc1C2=O)c1ccccc1` (centres undefined), the TGI in [1] was 6.4 µM; in experiment [2], over 100 µM; in experiment [3] it was over 83.8 µM; in experiment [4] it was 30.6 µM; in experiment [5] it was over 100 µM; in [6], 69.4 µM. The TGI is 20.6 µM in experiment [7], over 95.6 µM in experiment [8], over 100 µM in experiment [9] and 53 µM in experiment [10].

For `CC(CCC/C=C/CCCN(C)C(=N)N)CC(C)C1OC(=O)C(C)C(O)/C=C/C(C)C(O)C(C)C(O)C(C)C(O)CCCC(O)CC2(O)OC(CC(OC(=O)CC(=O)O)CC(O)CC(O)C(C)C(O)/C=C/C=C/C1C)CC(O)C2O` (centres undefined), the GI50 is 2.8 µM and 5.3 µg/mL in experiment [1]; 2.35 µM and 11.9 µg/mL in experiment [2]; 3.17 µM and 12 µg/mL in experiment [3]; 5.59 µM and 8.55 µg/mL in experiment [4]; 1.9 µM and 2.45 µg/mL in experiment [5]; 4.16 µM and 11.7 µg/mL in experiment [6]. Besides, the GI50 in experiment [7] is 1.73 µM and 2.67 µg/mL; in experiment [8] it was 2.04 µM and 2.59 µg/mL; in experiment [9], 2.02 µM and 9.83 µg/mL; in [10], 2.13 µM and 8.05 µg/mL. Also, the TGI was 7.6 µM and 17.5 µg/mL in [1]; 5.33 µM and 28.9 µg/mL in [2]; 11.3 µM and 29 µg/mL in experiment [3]; 19 µM and 19.9 µg/mL in experiment [4]; 4.39 µM and 9.24 µg/mL in experiment [5]; 17 µM and 22.5 µg/mL in experiment [6]. For the same compound, the TGI was 3.64 µM and 12.5 µg/mL in experiment [7]; 4.05 µM and 8.56 µg/mL in experiment [8]; 3.7 µM and 21.7 µg/mL in experiment [9]; 4.52 µM and 19.1 µg/mL in experiment [10].

With `C=C1C(=O)O[C@H]2[C@H]1CC/C(Cn1cc(CNC(=O)c3cc4ccccc4[nH]3)nn1)=C\CC[C@@]1(C)O[C@@H]21`, the GI50 in experiment [1] is 2.96 µM; in [2] it was 10.2 µM; in experiment [3], 1.82 µM; in [4] it was 1.97 µM; in experiment [5] it was 2.82 µM; in experiment [6] it was 18.9 µM. Further, the GI50 in [7] was 2.85 µM; in experiment [8] it was 2.18 µM; in experiment [9], 1.97 µM; in experiment [10] it was 1.57 µM. For the same compound, the TGI in experiment [1] was found to be 9.61 µM; in experiment [2] it was 27.4 µM; in experiment [3] it was 4.06 µM; in experiment [4], 3.78 µM; in [5] it was 9.7 µM; in [6], 39 µM. For the same compound, the TGI in experiment [7] was 8.65 µM; in experiment [8], 4.69 µM; in experiment [9], 3.94 µM; in [10] it was 3.33 µM.

In the case of `Cn1c(N)c(N=Nc2ccc(S(N)(=O)=O)cc2)c(=O)n(C)c1=O`, the TGI in experiment [1], in experiment [2], in [3], in experiment [4], in experiment [5] and in experiment [6] was over 100 µM throughout. Besides, the TGI in experiment [7], in experiment [8], in experiment [9] and in experiment [10] was over 100 µM in each case.

On to `Cc1cccc(NC(=O)c2sc3nc4c(cc3c2N)CCC4)c1C`, for which the GI50 was 0.367 µM in experiment [1]; 0.264 µM in experiment [2]; 0.643 µM in [3]; 0.594 µM in experiment [4]; 0.0519 µM in experiment [5]; 0.245 µM in experiment [6]. The GI50 was 0.241 µM in experiment [7], 0.803 µM in experiment [8], 0.359 µM in experiment [9] and 0.267 µM in experiment [10]. In addition, the TGI is 14.3 µM in experiment [1]; 21.3 µM in [2]; over 100 µM in experiment [3]; 29.3 µM in [4]; 0.284 µM in experiment [5]; 11.1 µM in experiment [6]. In addition, the TGI in [7] was 2.51 µM; in [8] it was 39.6 µM; in [9], over 100 µM; in experiment [10], 21 µM.

Turning to `CCN(CC)CCC(CNc1c2ccc(Cl)cc2nc2ccc(OC)cc12)c1ccccc1` (centres undefined), the GI50 in experiment [1] was 1.38 µM; in [2], 0.902 µM; in experiment [3] it was 1 µM; in experiment [4], 1.01 µM; in experiment [5], 1.5 µM; in experiment [6], 1.41 µM. Besides, the GI50 in [7] was 1.49 µM; in [8] it was 1.84 µM; in experiment [9], 0.538 µM; in experiment [10], 1.58 µM. Also, the TGI in experiment [1] was 3.11 µM; in [2] it was 4.33 µM; in experiment [3] it was 2.39 µM; in experiment [4], 2.73 µM; in [5], 3.09 µM; in experiment [6], 3.02 µM. The TGI in experiment [7] came to 3.16 µM; in [8], 3.27 µM; in [9], 2.15 µM; in experiment [10], 3.06 µM.

As to `CCCCCCCCCCCCOC1C(C(COC2OC(C(O)CO)C3OC(C)(C)OC23)OC(=O)Nc2ccc([N+](=O)[O-])cc2)OC2OC(C)(C)OC21` (centres undefined), the GI50 in experiment [1] is 1.7 µM; in experiment [2] it was 3.3 µM; in experiment [3], 2 µM; in experiment [4] it was 2.6 µM; in experiment [5], 1.84 µM; in experiment [6] it was 2.21 µM. Moreover, the GI50 in [7] is 4.15 µM; in experiment [8], 9.84 µM; in [9], 1.79 µM; in [10], 2.06 µM. Further, the TGI was 3.15 µM in experiment [1]; 11.1 µM in [2]; 3.79 µM in [3]; 7.2 µM in experiment [4]; 3.68 µM in experiment [5]; 5.48 µM in [6]. Also, the TGI in experiment [7] was determined as 14.7 µM; in experiment [8], 22.7 µM; in experiment [9], 3.33 µM; in [10] it was 4.61 µM.

As to `COc1cc(OC)c(-c2oc3ccccc3c(=O)c2O)c(OC)c1`, the TGI in [1] was over 100 µM; in experiment [2] it was over 100 µM; in experiment [3] it was over 100 µM; in experiment [4], over 100 µM; in experiment [5], 2.5 µM; in experiment [6] it was over 26.9 µM. Moreover, the TGI in [7], in experiment [8], in [9] and in [10] was over 100 µM in each case.

Take `NC(=O)NOCC1NC(=O)NC1=O` (centres undefined): the TGI in experiment [1], in experiment [2], in experiment [3], in experiment [4], in experiment [5] and in experiment [6] was over 100 µM throughout. Further, the TGI in experiment [7], in experiment [8], in experiment [9] and in experiment [10] was over 100 µM throughout.

With `Cn1c([N+](=O)[O-])cnc1/C=C1\Oc2ccc(Cl)cc2C1=O`, the GI50 in [1] is 0.942 µM; in experiment [2] it was 0.251 µM; in experiment [3], 0.25 µM; in experiment [4], 0.783 µM; in [5], 0.354 µM; in experiment [6] it was 1.72 µM. Also, the GI50 in experiment [7] was 1.62 µM; in [8] it was 1.14 µM; in [9], 0.181 µM; in experiment [10], 1.24 µM. The TGI in experiment [1] was 3.39 µM; in experiment [2], 1.04 µM; in [3], 0.825 µM; in experiment [4], 4.64 µM; in [5] it was 1.95 µM; in experiment [6] it was 5.65 µM. Besides, the TGI came out at 3.69 µM in experiment [7], 5.14 µM in experiment [8], 0.66 µM in experiment [9] and 3.27 µM in experiment [10].
